This experiment concerns Human immunodeficiency virus 1. Description: Antiviral activity against recombinant HIV1 YU2 in Cf2Th-CCR5 cells assessed as viral infectivity by luciferase assasy relative to JRC-II-191. Further: test concentration or dose not given here. Format: functional, isolate YU2.

Consider `CC1(C)NC(=O)N(C[C@H](O)COc2ccc(Cl)cc2)C1=O`, for which the “fold change (FC)” value is 0. Take `O=C(NCc1ccc2c(c1)OCO2)C(=O)Nc1ccc(Br)cc1`: the “fold change (FC)” value amounted to 0. With `Cc1nn(C)cc1CN(C)CC(=O)Nc1ccc(Br)cc1` the figure was 0. With `CC1(C)CC(NC(=O)C(=O)NCCc2ccc(Cl)cc2)CC(C)(C)N1` the figure was 0; with `CCN1CCCC1CNC(=O)C(=O)Nc1ccc(Cl)cc1` (centres undefined), 0. On to `O=C(NC[C@@H]1COC2(CCCC2)O1)C(=O)Nc1ccc(Cl)cc1`, for which the “fold change (FC)” value is 0. As to `O=C(Nc1ccc(Cl)cc1)C(=O)c1c[nH]c2ccccc12`, the “fold change (FC)” value was determined as 0. With `O=C(Nc1ccc(Cl)cc1)c1cc(-n2cnnc2)[nH]n1` the figure was 0; with `O=C(Nc1ccc(Cl)c(F)c1)C(=O)N[C@H]1CCN(Cc2ccccc2)C1`, 0.

For `CC1(C)Cc2c(sc(NC(=O)C(=O)Nc3ccc(Cl)c(F)c3)c2C#N)C(C)(C)N1`, the “fold change (FC)” value came to 0. Take `O=C(NCc1ccccc1CN1CCOCC1)C(=O)Nc1ccc(Cl)c(F)c1`: the “fold change (FC)” value is 0.5. With `CC1(C)CC(NC(=O)C(=O)Nc2ccc3ccccc3c2)CC(C)(C)N1` the figure was 0. With `CC1(C)CC(NC(=O)C(=O)Nc2ccc(Cl)c(OCc3ccccc3)c2)CC(C)(C)N1` the figure was 0; with `CC1(C)CC(NC(=O)CCC(=O)Nc2ccc(Br)cc2)CC(C)(C)N1`, 0; with `CN1CCCN(C(=O)COc2ccc(Cl)cc2)CC1`, 0.

Regarding `O=C(NCC1COc2ccccc2O1)C(=O)Nc1ccc(Br)cc1` (centres undefined), the “fold change (FC)” value stood at 0. With `CN1CCCC(ONC(=O)C(=O)Nc2ccc(Cl)c(F)c2)C1` (centres undefined) the figure was 0; with `CCN(CC)C(CNC(=O)C(=O)Nc1ccc(Cl)c(F)c1)CC(C)C` (centres undefined), 0; with `CC(CC(=O)Nc1ccc(Br)cc1)Nc1cccc(CO)c1` (centres undefined), 0. Consider `CC(C)c1ccccc1NC(=O)C(=O)NC1CC(C)(C)NC(C)(C)C1`, for which the “fold change (FC)” value is 0.

For the molecule `CC1CCCN(CCC(=O)Nc2ccc(Br)cc2)C1` (centres undefined), the “fold change (FC)” value worked out at 0. With `Cc1cc(NC(=O)C(=O)c2c[nH]c3ccccc23)ccc1Br` the figure was 0; with `CC1(C)CC(NC(=O)C(=O)Nc2ccc(Cl)c(F)c2)CC(C)(C)N1`, 1. For the molecule `CCN1CCC(CNC(=O)C(=O)Nc2ccc(Cl)c(F)c2)CC1`, the “fold change (FC)” value turned out to be 0.2. Regarding `CC1(C)CC(NC(=O)C(=O)Nc2ccc(Cl)cc2C(F)(F)F)CC(C)(C)N1`, the “fold change (FC)” value was found to be 0. With `N=c1oc2cc(O)ccc2cc1C(=O)Nc1ccc(Cl)cc1` the figure was 0; with `CC1(C)CC(NC(=O)C(=O)Nc2ccc(-n3cc(-c4ccccc4)nn3)cc2)CC(C)(C)N1`, 0. In the case of `CC(NC(=O)C(=O)Nc1ccc(Cl)c(F)c1)C(c1ccccc1Cl)N1CCOCC1` (centres undefined), the “fold change (FC)” value is 0. With `CC1(C)CC(NCC(=O)Nc2ccc(Cl)c(F)c2)CC(C)(C)N1` the figure was 0. As for `CC(C)(C)OC(=O)N1CCC(NC(=O)C(=O)Nc2ccc(Cl)c(F)c2)CC1`, the “fold change (FC)” value stood at 0. With `O=C(Nc1ccc(Cl)c(F)c1)C(=O)Nc1cnn2c1NCCC2` the figure was 0; with `CC(C)COc1cc(Cl)ccc1NC(=O)C(=O)NC1CC(C)(C)NC(C)(C)C1`, 0; with `CC(C)Oc1cc(NC(=O)C(=O)NC2CC(C)(C)NC(C)(C)C2)ccc1Cl`, 0. As to `O=C(CSc1nc(=O)[nH]c2c1CCCC2)Nc1ccc(Cl)cc1`, the “fold change (FC)” value amounted to 0.

Take `CC1(C)CC(NC(=O)C(=O)Nc2ccc(Cl)cc2F)CC(C)(C)N1`: the “fold change (FC)” value was 0. With `O=C(Nc1ccc(Cl)cc1)Nc1ncnc2[nH]cnc12` the figure was 0. With `O=C(CN1CCCCCC1)Nc1ccc(Br)cc1` the figure was 0.

For the molecule `Cc1cccc(-c2cc(C(=O)Nc3ccc(Cl)cc3)n[nH]2)c1O`, the “fold change (FC)” value was determined as 0. With `O=C(NCCc1cnc[nH]1)Nc1ccc(Cl)c(Cl)c1` the figure was 0; with `CN1CCN(C(CNC(=O)C(=O)Nc2ccc(Cl)c(F)c2)c2cccs2)CC1` (centres undefined), 0; with `CC1(C)CC(=O)c2cc(C(=O)Nc3ccc(Cl)cc3)c(=O)[nH]c2C1`, 0.

On to `CN1CCC(NC(=O)Nc2ccc(Cl)cc2Cl)CC1`, for which the “fold change (FC)” value is 0. For the molecule `C[C@@H](Sc1nc(=O)cc(N)[nH]1)C(=O)Nc1ccc(Cl)cc1`, the “fold change (FC)” value is reported as 0. As to `CC(C)c1cccc(NC(=O)C(=O)NC2CC(C)(C)NC(C)(C)C2)c1`, the “fold change (FC)” value is reported as 0. With `CC(C)(C)c1cc(CNC(=O)C(=O)Nc2ccc(Cl)c(F)c2)n[nH]1` the figure was 0.1. As to `CNS(=O)(=O)Cc1ccc(CNC(=O)C(=O)Nc2ccc(Cl)c(F)c2)cc1`, the “fold change (FC)” value stood at 0. With `CC1(C)CC(NC(=O)C(=O)Nc2ccc(-n3cc(CCc4ccccc4)nn3)cc2)CC(C)(C)N1` the figure was 0; with `O=C(COC(=O)c1n[nH]c2ccccc12)Nc1ccc(Cl)cn1`, 0.

`CC1(C)OC(=O)N(CCC(=O)Nc2ccc(Cl)cc2)[C@@]1(C)O`: the “fold change (FC)” value was 0. With `COc1cc(Cl)ccc1NC(=O)C(=O)NC1CC(C)(C)NC(C)(C)C1` the figure was 0. Regarding `Cc1ccc(N(C)C)cc1NC(=O)COc1ccc(Cl)cc1`, the “fold change (FC)” value is 0.

Take `O=C(NCc1ccco1)C(=O)Nc1ccc(Br)cc1`: the “fold change (FC)” value worked out at 0.

With `CC1(C)CC(NC(=O)C(=O)Nc2ccc(Cl)c(F)c2)CC(C)(C)[N+]1(C)[O-]` (centres undefined), the “fold change (FC)” value was determined as 0.23.

With `C[C@H](Sc1nc(N)cc(N)n1)C(=O)Nc1ccc(Cl)cc1`, the “fold change (FC)” value is reported as 0. With `CC1CCCCN1C(C)CNC(=O)C(=O)Nc1ccc(Cl)c(F)c1` (centres undefined) the figure was 0; with `O=C(CSCc1cc(O)[nH]n1)Nc1ccc(Br)cc1`, 0. For `CC1(C)CC(NC(=O)CC(=O)Nc2ccc(Br)cc2)CC(C)(C)N1`, the “fold change (FC)” value was 0. Take `O=C(NCC(c1ccco1)N1CCCC1)C(=O)Nc1ccc(Cl)c(F)c1` (centres undefined): the “fold change (FC)” value is 0. As for `COc1cccc(N[C@@H](C)C(=O)Nc2ccc(Br)cc2)c1`, the “fold change (FC)” value was determined as 0. With `O=C(Nc1cc[nH]c(=O)n1)c1sc2cc(Cl)ccc2c1Cl` the figure was 0. With `O=C(NCC1CCN(CCN2CCOCC2)C1)C(=O)Nc1ccc(Cl)c(F)c1` (centres undefined) the figure was 0.1. With `CC1(C)CC(NC(=O)C(=O)Nc2ccc(N=[N+]=[N-])cc2)CC(C)(C)N1` the figure was 0. On to `O=C(COc1ccc(Cl)cc1)Nc1ccc2[nH]c(=O)[nH]c2c1`, for which the “fold change (FC)” value was determined as 0. For the molecule `CCN=C(S)N1CCN(CC(=O)Nc2ccc(Br)cc2)CC1`, the “fold change (FC)” value is listed as 0. With `CCc1n[nH]c(NC(=O)C(=O)Nc2ccc(Cl)c(F)c2)c1CC` the figure was 0.

As for `CC(NC(=O)C(=O)Nc1ccc(Cl)c(F)c1)c1ccc2c(c1)NC(=O)CO2` (centres undefined), the “fold change (FC)” value is listed as 0. With `CCOc1cc(Cl)ccc1NC(=O)C(=O)NC1CC(C)(C)NC(C)(C)C1` the figure was 0; with `O=C(Nc1ccc(Cl)c(F)c1)C(=O)NC1CCN(C(=O)c2ccccc2)CC1`, 0; with `O=C(Nc1ccc(Br)cc1)C(=O)Nc1cccc2ccccc12`, 0. With `CC1(C)CC(NC(=O)C(=O)Nc2ccc(Cl)cc2Cl)CC(C)(C)N1` the figure was 0. With `CCOC(=O)[C@H]1CCCN(CCC(=O)Nc2ccc(Br)cc2)C1` the figure was 0; with `COc1cc(NC(=O)C(=O)NC2CC(C)(C)NC(C)(C)C2)ccc1Cl`, 0. As for `Nc1ccc(C(=O)CC(=O)Nc2ccc(Cl)cc2)cc1`, the “fold change (FC)” value worked out at 0.

In the case of `CN(C(=O)C(=O)NC1CC(C)(C)NC(C)(C)C1)c1ccc(Cl)cc1`, the “fold change (FC)” value was determined as 0. With `Cc1cc(SCC(=O)Nc2ccc(Cl)cc2)nc(=O)[nH]1` the figure was 0; with `NC(=O)C1CCN(CCC(=O)Nc2ccc(Br)cc2)CC1`, 0. On to `CC1(C)CC(=NNC(=O)c2n[nH]c3c2CCCC3)CC(C)(C)N1`, for which the “fold change (FC)” value stood at 0. With `O=C(NCC1OCCc2ccccc21)C(=O)Nc1ccc(Br)cc1` (centres undefined) the figure was 0; with `C[C@H]1CCCN(CCC(=O)Nc2ccc(Cl)cc2)C1`, 0. With `CC(NC(=O)C(=O)Nc1ccc(Cl)c(F)c1)c1ccc(S(N)(=O)=O)cc1` (centres undefined) the figure was 0; with `CC1Sc2cc(C(=O)NC3CC(C)(C)NC(C)(C)C3)ccc2NC1=O` (centres undefined), 0; with `CCN1CCCC1CNC(=O)C(=O)Nc1c(C(=O)OC)sc(C)c1C` (centres undefined), 0. With `O=C(Nc1ccc(Cl)cc1)c1cc2c([nH]c1=O)CCCC2` the figure was 0.

`O=C(NC[C@@H]1CCCN2CCCC[C@H]12)C(=O)Nc1ccc(Cl)c(F)c1`: the “fold change (FC)” value is 0. Take `O=C(NCC1CCN(C2CC2)C1)C(=O)Nc1ccc(Cl)c(F)c1` (centres undefined): the “fold change (FC)” value amounted to 0.3. With `COc1cccc(CNC(=O)C(=O)Nc2ccc(Cl)cc2)c1` the figure was 0; with `Cn1ccnc1C(O)(CCNC(=O)C(=O)Nc1ccc(Cl)c(F)c1)C(F)(F)F` (centres undefined), 0.

On to `CC1(C)CC(NC(=O)C(=O)Nc2cccc(OCc3ccccc3)c2)CC(C)(C)N1`, for which the “fold change (FC)” value is given as 0.

As for `CN(C)C(CNC(=O)C(=O)Nc1ccc(Cl)c(F)c1)N1CCCC1` (centres undefined), the “fold change (FC)” value is on record as 0. With `O=C(Nc1ccc2c(c1)C(=O)NC2=O)c1ccc(Cl)c(Cl)c1` the figure was 0; with `O=C(Nc1ccc(Cl)c(F)c1)C(=O)NC1CCN(C2CCCCC2)C1` (centres undefined), 0.48.

For `Cc1cc(OCC(=O)NCc2nc[nH]n2)ccc1Cl`, the “fold change (FC)” value worked out at 0.

With `CC1(C)CC(NC(=O)C(=O)Nc2ccc3cc[nH]c3c2)CC(C)(C)N1`, the “fold change (FC)” value was found to be 0.

As for `Nc1ncc(CNC(=O)C(=O)Nc2ccc(Cl)c(F)c2)cn1`, the “fold change (FC)” value came to 0.

Values taken from ChEMBL document CHEMBL1641443, “Design, synthesis and biological evaluation of small molecule inhibitors of CD4-gp120 binding based on virtual screening” (Bioorg Med Chem, 2011).
